Test results published in US7173022B2, “Bicyclic heterocycles as HIV integrase inhibitors” (priority 2004, dated 2007).

The compounds below were run against T1, HIV-integrase (Human immunodeficiency virus type 1 group M subtype B, UniProt P12497) (assay: HIV-Integrase Inhibition Activity (SPA bead strand transfer assay)). Settings: recombinant integrase, biotin labeled substrate DNA on SPA beads, P33 labeled target DNA.
T1 construct: Recombinant integrase (0.26 ng) was incubated with the beads
Assay type: biochemical
Procedure: HIV-Integrase InhibitionActivity. To evaluate in-vitro activity against HIV-integrase, 5 pmole of biotin labeled substrate DNA was bound to 100 μg of Streptavidin coated PVT SPA beads (Amersham Pharmacia Biotech). Recombinant integrase (0.26 ng) was incubated with the beads for 90 min at 37° C. Unbound enzyme was removed by washing the complex followed by addition of inhibitors and 0.1 fmol of P33 labeled target DNA. The reaction was stopped by adding EDTA to a final concentration of 10 mM. Samples were counted in TopCountNXT (Packard) and the CPM was used as a measure of integration. The reaction condition was as described in A. Engelman and R. Craigie, J. Virol 69, 5908–5911 (1995). The sequences of substrate and target DNA were described in Nucleic Acid Research 22, 1121–1122 (1994).

Compound | IC50
O=C(NCc1ccc(Cl)c(Cl)c1)c1nc2n(c(=O)c1O)CCC=C2c1ccccc1 [Example 7, N-(3,4-Dichlorobenzyl)-3-hydroxy-4-oxo-9-phenyl-6,7-dihydro-4H-pyrido[1,2-a]pyrimidine-2-carboxamide] | 2 to 9 nM
CNC(=O)c1cc(F)ccc1CNC(=O)c1nc2n(c(=O)c1O)CCC=C2c1cccnc1 [Example 11, N-(4-Fluoro-2-(methylcarbamoyl)benzyl)-3-hydroxy-4-oxo-9-(pyridin-3-yl)-6,7-dihydro-4H-pyrido[1,2-a]pyrimidine-2-carboxamide] | 2 to 9 nM
CNC(=O)c1cc(F)ccc1CNC(=O)c1nc2n(c(=O)c1O)CCCC2(C)C [Example 5, N-(4-Fluoro-2-(methylcarbamoyl)benzyl)-3-hydroxy-9,9-dimethyl-4-oxo-6,7,8,9-tetrahydro-4H-pyrido[1,2-a]pyrimidine-2-carboxamide] | 2 to 9 nM
CC1(C)CCCn2c1nc(C(=O)NCc1ccc(F)cc1-n1cncn1)c(O)c2=O [Example 6, N-(4-Fluoro-2-(1H-1,2,4-triazol-1-yl)benzyl)-3-hydroxy-9,9-dimethyl-4-oxo-6,7,8,9-tetrahydro-4H-pyrido[1,2-a]pyrimidine-2-carboxamide] | 2 to 9 nM
O=C(NCc1ccc(F)cc1)c1nc2n(c(=O)c1O)CCC=C2c1ccccc1 [Example 8, N-(4-Fluorobenzyl)-3-hydroxy-4-oxo-9-phenyl-6,7-dihydro-4H-pyrido[1,2-a]pyrimidine-2-carboxamide] | 2 to 9 nM
CC1(C)CCCn2c1nc(C(=O)NCc1ccc(F)cc1)c(O)c2=O [Example 4, 3-Hydroxy-9,9-dimethyl-4-oxo-6,7,8,9-tetrahydro-4H-pyrido[1,2-a]pyrimidine-2-carboxylic acid 4-fluoro-benzylamide] | 2 to 9 nM
CC1(C)CCCCn2c1nc(C(=O)NCc1ccc(F)cc1-n1cncn1)c(O)c2=O [Example 13, N-(4-Fluoro-2-(1H-1,2,4-triazol-1-yl)benzyl)-3-hydroxy-10,10-dimethyl-4-oxo-4,6,7,8,9,10-hexahydropyrimido[1,2-a]azepine-2-carboxamide] | 2 to 9 nM
CC1(C)CCn2c1nc(C(=O)NCc1ccc(F)cc1-n1cncn1)c(O)c2=O [Example 3, N-(4-fluoro-2-(1H-1,2,4-triazol-1-yl)benzyl)-3-hydroxy-8,8-dimethyl-4-oxo-4,6,7,8-tetrahydropyrrolo[1,2-a]pyrimidine-2-carboxamide] | 2 to 9 nM
CNC(=O)c1cc(F)ccc1CNC(=O)c1nc2n(c(=O)c1O)CCC=C2c1ccccc1 [Example 9, N-(4-Fluoro-2-(methylcarbamoyl)benzyl)-3-hydroxy-4-oxo-9-phenyl-6,7-dihydro-4H-pyrido[1,2-a]pyrimidine-2-carboxamide] | 2 to 9 nM
CC1(C)CCCCn2c1nc(C(=O)NCc1ccc(F)cc1)c(O)c2=O [Example 12, N-(4-Fluorobenzyl)-3-hydroxy-10,10-dimethyl-4-oxo-4,6,7,8,9,10-hexahydropyrimido[1,2-a]azepine-2-carboxamide] | 2 to 9 nM
O=C(NCc1ccc(F)cc1)c1nc2n(c(=O)c1O)CCC=C2c1cccnc1 [Example 10, N-(4-Fluorobenzyl)-3-hydroxy-4-oxo-9-(pyridin-3-yl)-6,7-dihydro-4H-pyrido[1,2-a]pyrimidine-2-carboxamide] | 2 to 9 nM
CC1(C)CCn2c1nc(C(=O)NCc1ccc(F)cc1)c(O)c2=O [Example 1, N-(4-Fluorobenzyl)-3-hydroxy-8,8-dimethyl-4-oxo-4,6,7,8-tetrahydropyrrolo[1,2-a]pyrimidine-2-carboxamide] | 2 to 9 nM
CNC(=O)c1cc(F)ccc1CNC(=O)c1nc2n(c(=O)c1O)CCC2(C)C [Example 2, N-(4-Fluoro-2-(methylcarbamoyl)benzyl)-3-hydroxy-8,8-dimethyl-4-oxo-4,6,7,8-tetrahydropyrrolo[1,2-a]pyrimidine-2-carboxamide] | 10 to 49000 nM
